Where only a bound is given, the exact number is not on record here.

Assay [1] has as its target T1, PDE4D5: full-length human PDE4D5 isozyme (Homo sapiens, UniProt Q08499).
T1 construct: made in house; host or cells: baculovirus infected insect cells (pFastBacHT)
The experiment in a line: PDE4 IC50 determination by Scintillation Proximity Assay (SPA), full-length PDE4D5. The assay is classed as biochemical. To be noted: cell lysate, [3H]cAMP SPA. An outline of the steps: (§1)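 Unpurified enzyme from cell lysates (PDE4B2 2.5 μl, PDE4D5 0.083 μl of 50% glycerol stock/ml) hydrolysing [3H]cAMP in 50 mM Tris pH 7.5, 8.3 mM MgCl, 1.7 mM EGTA, 0.01% BSA, 30 min at 30 °C. Stopped with yttrium silicate SPA beads in 18 mM ZnSO4; bead-bound [3H]AMP counted. IC50 by non-linear regression.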
On the technique in general: In a scintillation proximity assay essentially only radioactivity close to the scintillant gives light.

The subject of assay [2] is TNF-α release from whole blood cultures stimulated with LPS. The experiment in a line: IC50 by TNF alpha production upon stimulation of whole blood cultures with LPS. It counts as cell-based. To be noted: human whole blood (buffy coat) culture, 100 ng/ml LPS, 4 hours; read-out: h TNFα IC50. Put shortly:
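Human buffy coat, diluted with 7 volumes of RPMI/2.5% heat-inactivated FBS, was preincubated with compound (8-point 1:3 series) for 1 h at 37 °C. It was then stimulated with 100 ng/ml LPS (final) for 4 h. Supernatant TNF-α was measured by sandwich ELISA at 450 nm, and IC50 was set between DMSO (0%) and PDE4-inhibitor (100%) controls.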

Assay [3] deals with T2, PDE4D: catalytic domain S316-V692 (Homo sapiens, UniProt Q08499).
T2 construct: pET15S PDE4D S316-V692-X; His6 (N, cleaved yes); thrombin cleavage site (N, cleaved yes); made in house; host or cells: E. coli BL21 (DE3) RIL
The experiment in a line: PDE4 IC50 determination by Scintillation Proximity Assay (SPA), PDE4D catalytic domain. It counts as biochemical. Conditions: [3H]cAMP SPA, 30 min at 30° C. The method, then:
IC50s were determined by Scintillation Proximity Assay (SPA). The principle of the assay is based on the fact that cAMP, the PDE4 substrate, binds weakly to Yittrium Silicate SPA beads, whereas AMP, the product of PDE4 hydrolysis binds strongly. Thus, the extent of PDE4 hydrolysis of a sample of [^3H]cAMP can be measured because only the [^3H]AMP produced by PDE4 hydrolysis will bind to the SPA beads and produce a scintillation signal.
[…] Enzyme was stored in 50% glycerol at −20°. See Example 144.
Compounds tested (see Tables 5 for compounds and results) were 3-fold serially diluted 11 times in DMSO from a starting concentration of 4 mM or 40 μM, depending on compound potency. 1 μl of each dilution was transferred into duplicate wells of a white polystyrene 384-well assay plate (Corning #3710). In addition to the compound dilutions, each assay plate contained control wells with 1 μl of DMSO (to define 0% enzyme inhibition) or 1 μl of 200 μM roflumilast (to define 100% enzyme inhibition). Using a Beckman FX robot, 10 μl of [^3H] cAMP (Amersham TRK559) at […] in assay buffer (50 mM Tris, pH 7.5; 8.3 mM MgCl; 1.7 mM EGTA; 0.01% BSA) was transferred to each assay well. Next, 10 μl of PDE4 enzyme in assay buffer was added and the plates were shaken for 30 s. at 1000 rpm to start the cAMP hydrolysis reaction. The concentrations of enzyme used were: PDE4B, 80 ng/ml; PDE4D, 4 ng/ml; PDE4B2, 2.5 μl of 50% glycerol stock/ml; PDE4D5 0.083 μl of 50% glycerol stock/ml. Assay plates were covered and incubated for 30 min. at 30° C. Reactions were stopped by robotic addition of 10 μl of 5 mg/ml SPA beads (Amersham RPNQ0013) in 18 mM ZnSO4. The assay plates were covered with clear plastic film, centrifuged for 1 min. at 1000 RPM to settle the SPA beads, and counted using a Wallac TriLux scintillation counter. IC50's were calculated from the raw assay data by non-linear regression curve fitting using the Assay Explorer software package from MDL.

The target of assay [4] is T3, PDE4B: catalytic domain of human PDE4B from S152-S528 (Homo sapiens, UniProt Q07343).
T3 construct: The catalytic domain of human PDE4B from S152-S528; His6 (N, cleaved yes); thrombin cleavage site (N, cleaved yes); made in house; host or cells: E. coli BL21 (DE3) RIL
The experiment in a line: PDE4 IC50 determination by Scintillation Proximity Assay (SPA), PDE4B catalytic domain. Conditions: [3H]cAMP SPA, 30 min at 30° C. The assay is classed as biochemical. An outline of the steps:
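Human PDE4B catalytic domain (80 ng/ml) hydrolysed [3H]cAMP in 50 mM Tris pH 7.5, 8.3 mM MgCl, 1.7 mM EGTA, 0.01% BSA for 30 min at 30 °C. Reaction was stopped with yttrium silicate SPA beads in 18 mM ZnSO4, and bound [3H]AMP was counted by scintillation. IC50 came from non-linear regression.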

Assay [5] addresses T4, PDE4B2: full-length human PDE4B2 isozyme (Homo sapiens, UniProt Q07343).
T4 construct: made in house; host or cells: baculovirus infected insect cells (pFastBacHT)
The experiment in a line: PDE4 IC50 determination by Scintillation Proximity Assay (SPA), full-length PDE4B2. It counts as biochemical. Conditions: cell lysate, [3H]cAMP SPA. An outline of the steps: as §1

T1 sequence (Q08499 with tags, fused parts or gaps isoform Q08499-6): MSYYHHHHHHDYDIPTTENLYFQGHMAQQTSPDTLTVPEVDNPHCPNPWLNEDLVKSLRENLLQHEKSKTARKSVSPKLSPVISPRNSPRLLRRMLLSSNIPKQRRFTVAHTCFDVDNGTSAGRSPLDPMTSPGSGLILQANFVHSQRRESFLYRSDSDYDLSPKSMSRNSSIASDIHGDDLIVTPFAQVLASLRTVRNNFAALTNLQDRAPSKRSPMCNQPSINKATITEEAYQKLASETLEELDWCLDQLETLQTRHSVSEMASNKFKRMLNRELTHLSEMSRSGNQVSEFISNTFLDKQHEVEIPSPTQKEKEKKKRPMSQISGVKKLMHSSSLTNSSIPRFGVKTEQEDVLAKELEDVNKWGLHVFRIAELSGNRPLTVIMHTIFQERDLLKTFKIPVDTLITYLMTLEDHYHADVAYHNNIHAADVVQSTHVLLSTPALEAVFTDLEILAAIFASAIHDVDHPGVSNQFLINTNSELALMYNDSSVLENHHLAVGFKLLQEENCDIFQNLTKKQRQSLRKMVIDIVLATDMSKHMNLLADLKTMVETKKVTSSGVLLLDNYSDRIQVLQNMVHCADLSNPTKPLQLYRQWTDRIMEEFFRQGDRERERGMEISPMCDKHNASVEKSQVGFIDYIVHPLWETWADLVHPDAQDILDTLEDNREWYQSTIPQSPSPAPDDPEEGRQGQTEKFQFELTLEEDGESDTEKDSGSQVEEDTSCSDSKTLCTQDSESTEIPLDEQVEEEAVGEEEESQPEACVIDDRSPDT
T4 sequence (Q07343 with tags, fused parts or gaps isoform Q07343-2): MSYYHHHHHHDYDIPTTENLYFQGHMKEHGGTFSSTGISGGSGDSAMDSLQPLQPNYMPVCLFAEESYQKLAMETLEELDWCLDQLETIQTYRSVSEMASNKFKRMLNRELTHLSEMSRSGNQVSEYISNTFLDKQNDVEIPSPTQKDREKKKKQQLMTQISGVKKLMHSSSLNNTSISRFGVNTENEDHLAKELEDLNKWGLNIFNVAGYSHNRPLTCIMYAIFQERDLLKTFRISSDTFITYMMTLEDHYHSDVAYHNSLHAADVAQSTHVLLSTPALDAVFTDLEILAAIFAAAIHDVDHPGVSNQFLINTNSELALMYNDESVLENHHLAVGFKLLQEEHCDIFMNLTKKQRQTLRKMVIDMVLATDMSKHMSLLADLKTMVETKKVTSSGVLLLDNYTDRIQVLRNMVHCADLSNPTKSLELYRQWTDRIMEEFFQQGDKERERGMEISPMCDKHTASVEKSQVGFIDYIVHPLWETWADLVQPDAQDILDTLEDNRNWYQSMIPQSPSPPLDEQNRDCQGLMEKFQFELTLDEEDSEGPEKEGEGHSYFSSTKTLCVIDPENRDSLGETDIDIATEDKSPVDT
T2 sequence (Q08499 380-756): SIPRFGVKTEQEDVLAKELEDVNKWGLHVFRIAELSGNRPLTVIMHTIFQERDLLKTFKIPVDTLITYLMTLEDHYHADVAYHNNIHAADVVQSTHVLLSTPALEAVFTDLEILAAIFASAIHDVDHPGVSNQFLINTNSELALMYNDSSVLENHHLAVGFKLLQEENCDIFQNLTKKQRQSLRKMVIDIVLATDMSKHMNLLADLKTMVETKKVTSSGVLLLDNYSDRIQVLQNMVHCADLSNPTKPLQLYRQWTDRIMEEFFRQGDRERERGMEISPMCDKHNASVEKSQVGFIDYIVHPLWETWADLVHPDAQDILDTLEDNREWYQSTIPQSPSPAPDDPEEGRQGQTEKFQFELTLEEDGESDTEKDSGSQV
T3 sequence (Q07343 324-700): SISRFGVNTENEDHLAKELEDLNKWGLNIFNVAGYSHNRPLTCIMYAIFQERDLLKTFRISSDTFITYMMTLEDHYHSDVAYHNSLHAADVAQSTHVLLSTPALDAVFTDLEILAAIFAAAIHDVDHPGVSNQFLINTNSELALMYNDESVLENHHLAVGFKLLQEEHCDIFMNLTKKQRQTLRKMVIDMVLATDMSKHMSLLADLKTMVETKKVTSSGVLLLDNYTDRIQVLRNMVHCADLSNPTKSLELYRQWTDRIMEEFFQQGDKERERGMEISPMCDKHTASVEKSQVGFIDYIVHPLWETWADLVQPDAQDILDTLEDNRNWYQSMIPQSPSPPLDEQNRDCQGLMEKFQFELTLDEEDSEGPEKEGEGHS

The term IC50 denotes the concentration that gives 50% inhibition. In the case of `COc1ccc(-c2c[nH]c3ncccc23)cc1OC` [Compound 1, 3-(3,4-dimethoxy-phenyl)-1H-pyrrolo[2,3-b]pyridine], the IC50 in assay [1] is under 10 µM; in assay [2], at most 10 µM; in assay [3], at most 10 µM; in assay [4], under 10 µM; in assay [5], under 10 µM.
Regarding `COc1ccc(-c2cn(S(=O)(=O)c3ccccc3)c3ncccc23)cc1OC` [Compound 5, 1-benzenesulfonyl-3-(3,4-dimethoxy-phenyl)-1H-pyrrolo[2,3-b]pyridine], the IC50 in assay [1] is under 10 µM; in assay [2], at most 10 µM; in assay [3], at most 10 µM; in assay [4], under 10 µM; in assay [5], under 10 µM.
On to `COc1ccc(-c2cn(S(=O)(=O)Cc3ccc(Cl)cc3)c3ncccc23)cc1OC` [Compound 17, 1-(4-chloro-phenylmethanesulfonyl)-3-(3,4-dimethoxy-phenyl)-1H-pyrrolo[2,3-b]pyridine], for which the IC50 in assay [1] is under 10 µM; in assay [2], at most 10 µM; in assay [3], at most 10 µM; in assay [4] it was under 10 µM; in assay [5], under 10 µM.
Take `COc1ccc(-c2cn(C(=O)Nc3ccccc3)c3ncccc23)cc1OC` [Compound 28, 3-(3,4-Dimethoxy-phenyl)-pyrrolo[2,3-b]pyridine-1-carboxylic acid phenylamide]: the IC50 in assay [1] is under 10 µM; in assay [3], at most 10 µM; in assay [4] it was under 10 µM; in assay [5] it was under 10 µM.
As for `CCOC(=O)c1cccc(NC(=O)n2cc(-c3ccc(OC)c(OC)c3)c3cccnc32)c1` [Compound 30, 3-[3-(3,4-Dimethoxy-phenyl)-pyrrolo[2,3-b]pyridine-1-carbonyl]-amino-benzoic acid ethyl ester], the IC50 was under 10 µM in assay [1], at most 10 µM in assay [3], under 10 µM in assay [4] and under 10 µM in assay [5].
On to `COc1ccc(-c2cn(Cc3ccccc3-c3ccccc3)c3ncccc23)cc1OC` [Compound 78, 1-Biphenyl-2-ylmethyl-3-(3,4-dimethoxy-phenyl)-1H-pyrrolo[2,3-b]pyridine], for which the IC50 is under 10 µM in assay [1], at most 10 µM in assay [2], under 10 µM in assay [4] and under 10 µM in assay [5].
For the molecule `COc1ccc(-c2cn(Cc3cccc(C(F)(F)F)c3)c3ncccc23)cc1OC` [Compound 79, 3-(3,4-Dimethoxy-phenyl)-1-(3-trifluoromethyl-benzyl)-1H-pyrrolo[2,3-b]pyridine], the IC50 is under 10 µM in assay [1], at most 10 µM in assay [2], under 10 µM in assay [4] and under 10 µM in assay [5].
Regarding `CCOc1ccc2ccccc2c1C(=O)n1ccc2cc(-c3ccc(OC)c(OC)c3)cnc21` [Compound 80, [5-(3,4-Dimethoxy-phenyl)-pyrrolo[2,3-b]pyridin-1-yl]-(2-ethoxy-naphthalen-1-yl)-methanone], the concentration for half-maximal inhibition (IC50) is under 10 µM in assay [1], over 10 µM in assay [2], under 10 µM in assay [4] and under 10 µM in assay [5].
For the molecule `COc1ccc(-c2cnc3[nH]ccc3c2)cc1OC` [Compound 82, 5-(3,4-Dimethoxy-phenyl)-1H-pyrrolo[2,3-b]pyridine], the concentration for half-maximal inhibition (IC50) in assay [1] is under 10 µM; in assay [2], at most 10 µM; in assay [4], under 10 µM; in assay [5], under 10 µM.
In the case of `COc1ccc(-c2cn(S(=O)(=O)c3csc4ccccc34)c3ncccc23)cc1OC` [Compound 91, 1-(Benzo[b]thiophene-3-sulfonyl)-3-(3,4-dimethoxy-phenyl)-1H-pyrrolo[2,3-b]pyridine], the concentration for half-maximal inhibition (IC50) is under 10 µM in assay [1], over 10 µM in assay [2], under 10 µM in assay [4] and under 10 µM in assay [5].
On to `COc1ccc2c(c1)c(-c1ccc(OC)c(OC3CCCC3)c1)cn2S(=O)(=O)c1cccc2cc(C)cnc12` [Compound 97, 8-[5-Methoxy-3-(3-cyclopentyloxy-4-methoxy-phenyl)-indole-1-sulfonyl]-3-methyl-quinoline], for which the IC50 in assay [1] was over 10 µM; in assay [3], at most 10 µM; in assay [4], under 10 µM; in assay [5] it was under 10 µM.
On to `COc1ccc(-c2cn(S(=O)(=O)c3ccccc3)c3ncccc23)cc1OCc1ccccc1` [Compound 103, 1-Benzenesulfonyl-3-(3-benzyloxy-4-methoxy-phenyl)-1H-pyrrolo[2,3-b]pyridine], for which the IC50 in assay [1] was under 10 µM; in assay [3], at most 10 µM; in assay [4], under 10 µM; in assay [5], under 10 µM.
Take `COc1ccc(-c2cn(Cc3cc(-c4ccccc4)no3)c3ncccc23)cc1OC` [Compound 104, 3-(3,4-Dimethoxy-phenyl)-1-(3-phenyl-isoxazol-5-ylmethyl)-1H-pyrrolo[2,3-b]pyridine]: the IC50 was under 10 µM in assay [1], at most 10 µM in assay [3], under 10 µM in assay [4] and under 10 µM in assay [5].
In the case of `COc1ccc(-c2cn(C(=O)c3ccc(C)c4ccccc34)c3ncccc23)cc1OC` [Compound 114, [3-(3,4-Dimethoxy-phenyl)-pyrrolo[2,3-b]pyridin-1-yl]-(4-methyl-naphthalen-1-yl)-methanone], the IC50 in assay [1] is under 10 µM; in assay [2], at most 10 µM; in assay [4], under 10 µM; in assay [5], under 10 µM.
Consider `COc1ccc(-c2cn(C(=O)c3c(-c4ccccc4)cnc4ccccc34)c3ncccc23)cc1OC` [Compound 117, [3-(3,4-Dimethoxy-phenyl)-pyrrolo[2,3-b]pyridin-1-yl]-(3-phenyl-quinolin-4-yl)-methanone], for which the IC50 was under 10 µM in assay [1], over 10 µM in assay [2], under 10 µM in assay [4] and under 10 µM in assay [5].
Consider `COc1ccc(-c2cn(C(=O)c3c(OCC(F)(F)F)ccc4ccccc34)c3ncccc23)cc1OC1CCCC1` [Compound 124, [3-(3-Cyclopentyloxy-4-methoxy-phenyl)-pyrrolo[2,3-b]pyridin-1-yl]-[2-(2,2,2-trifluoro-ethoxy)-naphthalen-1-yl]-methanone], for which the IC50 in assay [1] was under 10 µM; in assay [3], at most 10 µM; in assay [4], under 10 µM; in assay [5], under 10 µM.
Consider `COc1ccc(-c2ccnc3c2ccn3S(=O)(=O)Cc2ccccc2)cc1OC` [Compound 127, 4-(3,4-Dimethoxy-phenyl)-1-phenylmethanesulfonyl-1H-pyrrolo[2,3-b]pyridine], for which the IC50 in assay [1] was under 10 µM; in assay [2], at most 10 µM; in assay [4], under 10 µM; in assay [5] it was under 10 µM.
Turning to `COc1ccc(-c2c(C)[nH]c3ncccc23)cc1OC` [Compound 143, 3-(3,4-Dimethoxy-phenyl)-2-methyl-1H-pyrrolo[2,3-b]pyridine], the results for the IC50 in assay [3] and in assay [4] were at most 10 µM and under 10 µM, respectively.

The values above are taken from patent US7605168B2 (Plexxikon, Inc., priority 2004, dated 2009).
